Experimental data reported in patent publication US20260234403A1, “PHOTOACTIVE FLUORESCENT COMPOUNDS AND USE THEREOF FOR LABELING OF PROTEINS” (EIKON THERAPEUTICS, INC., priority 2023, published 2026).

Experiments:
[1] = tested on: histone H2B-HaloTag fusion; test: Halo-protein specificity (Specificity Factor), single molecule spot detection; format: cell-based; conditions: ratio of slope (spots vs dye concentration, 200 nM to 1 nM, 45 minutes) relative to PA-JF549; WT and H2B-HaloTag U2OS cells
Source text: Images were collected every 10 msec for 5 seconds per field of view and pulses of ascending intensity 405 nm light (between 0 and 12 mW at the coverslip) were used to photoactivate dye molecules.
For each dye compound, a linear regression was used to determine the relationship between the concentration of dye compound and the number of fluorescence spots detected on the microscope, where in WT cells the ideal dye would have no correlation between compound concentration and number of slots measured. The Specificity Factor was calculated as the ratio of the slope of the compound in question relative to the slope calculated for PA-JF549 and is shown in Table 3 below.

[2] = tested on: Wild-type (WT) U2OS cells; test: Reduction in nonspecific labeling of WT cells (number of tracks vs PA-JF549); format: cell-based; conditions: 100 nM, 1 hr, ratio with PA-JF549 in the numerator
Protocol: Using the methods described in Tables 4a and 4b above, labelling specificity of the compound of Examples 1-28 was measured and compared to PA-JF549. U2OS cells wild type or expressing ER-HaloTag fusion were incubated with PA-JF549 or Examples 1-28 for 1 hr. […] Labeling specificity, as measured by the fold reduction in nonspecific labeling of WT cells, was calculated by number of tracks measured in WT cells for Examples 1-28 compared to the number of tracks in WT cells for PA-JF549, expressed as the ratio with PA-JF549 in the numerator.

[3] = Table 4b, Example 19 with 642 nm light

In the case of `[N-]=[N+]=C1C(=O)c2ccc(C(=O)NCCOCCOCCCCCCCl)cc2C12c1ccc(N3CC(C(=O)O)C3)cc1Oc1cc(N3CC(C(=O)O)C3)ccc12` [Reference Example 2, 1,1′-(6-((2-(2-((6-chlorohexyl)oxy)ethoxy)ethyl)carbamoyl)-2-diazo-3-oxo-2,3-dihydrospiro[indene-1,9′-xanthene]-3′,6′-diyl)bis(azetidine-3-carboxylic acid)], the “Specificity Factor” value [1] is reported as <1, the “Fold reduction in nonspecific labeling” value ([2]; Table 4a) is reported as >10 and the “Fold reduction in nonspecific labeling” value [2, 3] is reported as >10.

For `CN(C)C(=O)C1CN(c2ccc3c(c2)Oc2cc(N4CC(C(=O)N(C)C)C4)ccc2C32C(=[N+]=[N-])C(=O)c3ccc(C(=O)NCCOCCOCCCCCCCl)cc32)C1` [Example 4, 1,1′-(6-((2-(2-((6-chlorohexyl)oxy)ethoxy)ethyl)carbamoyl)-2-diazo-3-oxo-2,3-dihydrospiro[indene-1,9′-xanthene]-3′,6′-diyl)bis(N,N-dimethylazetidine-3-carboxamide)], the “Specificity Factor” value [1] was 23.8, the “Fold reduction in nonspecific labeling” value ([2]; Table 4a) was >10 and the “Fold reduction in nonspecific labeling” value [2, 3] was >10.

In the case of “(E)-3′,6′-di(azetidin-1-yl)-6-(4-(2-((6-chlorohexyl)oxy)ethoxy)but-1-en-1-yl)-2-diazospiro[indene-1,9′-xanthen]-3(2H)-one and (Z)-3′,6′-di(azetidin-1-yl)-6-(4-(2-((6-chlorohexyl)oxy)ethoxy)but-1-en-1-yl)-2-diazospiro[indene-1,9′-xanthen]-3(2H)-one [Example 23]”, the “Fold reduction in nonspecific labeling” value [2, 3] is reported as >10.

`[N-]=[N+]=C1C(=O)c2ccc(C(=O)NCCOCCOCCCCCCCl)cc2C12c1ccc(N3C4COCC3C4)cc1Oc1cc(N3C4COCC3C4)ccc12` (centres unmarked) [Example 17, 3′,6′-di(3-oxa-6-azabicyclo[3.1.1]heptan-6-yl)-N-(2-(2-((6-chlorohexyl)oxy)ethoxy)ethyl)-2-diazo-3-oxo-2,3-dihydrospiro[indene-1,9′-xanthene]-6-carboxamide] was tested, and the “Fold reduction in nonspecific labeling” value ([2]; Table 4a) was 1-5 and the “Fold reduction in nonspecific labeling” value [2, 3] was 1-5.

`COC(=O)C1CN(c2ccc3c(c2)Oc2cc(N4CC(C(=O)OC)C4)ccc2C32C(=[N+]=[N-])C(=O)c3ccc(C(=O)NCCOCCOCCCCCCCl)cc32)C1` [Reference Example 1, dimethyl 1,1′-(6-((2-(2-((6-chlorohexyl)oxy)ethoxy)ethyl)carbamoyl)-2-diazo-3-oxo-2,3-dihydrospiro[indene-1,9′-xanthene]-3′,6′-diyl)bis(azetidine-3-carboxylate)] was tested, and the “Specificity Factor” value [1] was 2.66, the “Fold reduction in nonspecific labeling” value ([2]; Table 4a) was >10 and the “Fold reduction in nonspecific labeling” value [2, 3] was >10.

With `[N-]=[N+]=C1C(=O)c2ccc(C(=O)NCCOCCOCCCCCCCl)cc2C12c1ccc(N3CC(C(=O)N4CCOCC4)C3)cc1Oc1cc(N3CC(C(=O)N4CCOCC4)C3)ccc12` [Example 9, N-(2-(2-((6-chlorohexyl)oxy)ethoxy)ethyl)-2-diazo-3′,6′-bis(3-(morpholine-4-carbonyl)azetidin-1-yl)-3-oxo-2,3-dihydrospiro[indene-1,9′-xanthene]-6-carboxamide] the “Fold reduction in nonspecific labeling” value ([2]; Table 4a) was >10 and the “Fold reduction in nonspecific labeling” value [2, 3] was >10.

In the case of `COC[C@H]1CCN1c1ccc2c(c1)Oc1cc(N3CC[C@@H]3COC)ccc1C21C(=[N+]=[N-])C(=O)c2ccc(C(=O)NCCOCCOCCCCCCCl)cc21` [Example 3, N-(2-(2-((6-chlorohexyl)oxy)ethoxy)ethyl)-2-diazo-3′,6′-bis((R)-2-(methoxymethyl)azetidin-1-yl)-3-oxo-2,3-dihydrospiro[indene-1,9′-xanthene]-6-carboxamide], the “Specificity Factor” value [1] is reported as 2.07, the “Fold reduction in nonspecific labeling” value ([2]; Table 4a) is reported as 1-5 and the “Fold reduction in nonspecific labeling” value [2, 3] is reported as 1-5.
